Source: the supplement of paper PMC10307832

Assays:
Assay in all cases: relative viability (nuclei count vs DMSO), 5 days (fraction); higher = more cells survive
ABC-1 = tested on: ABC-1
Procedure, shortened: (§1)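 One day after seeding in 1536-well plates, lung cancer cell lines were dosed by pin tool. Dosing was either single-drug or a fixed anchor-drug dose plus five library-drug doses (not always all listed) in √10 steps. After 5 days, nuclei were stained in one fix-and-stain step and counted on 4× images, and relative viability is the nuclei count of treated wells over that of vehicle wells, given as the median of duplicate plates.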

NCI-H2228 = tested on: NCI-H2228
Procedure, shortened: as §1

NCI-H2009 = tested on: NCI-H2009
Procedure, shortened: as §1

NCI-H1623 = tested on: NCI-H1623
Procedure, shortened: as §1

NCI-H1648 = tested on: NCI-H1648
Procedure, shortened: as §1

EMC-BAC-2 = tested on: EMC-BAC-2
Procedure, shortened: as §1

`Cc1cn(-c2cc(NC(=O)c3ccc(C)c(Nc4nccc(-c5cccnc5)n4)c3)cc(C(F)(F)F)c2)cn1` [Nilotinib] + COc1cccc2cc(-c3nc([C@H]4CC[C@H](C(=O)O)CC4)n4ncnc(N)c34)[nH]c12 [OSI-027] (partner 0.5 µM) was tested, and the relative viability (ABC-1; first compound 0.001 µM) was 0.447, the relative viability (ABC-1; first compound 0.003162 µM) was 0.479 and the relative viability (ABC-1; first compound 0.01 µM) was 0.45. The relative viability (ABC-1; first compound 0.03162 µM) was 0.376, the relative viability (ABC-1; first compound 0.1 µM) was 0.237 and the relative viability (NCI-H2228; first compound 0.003162 µM) was 0.631. The relative viability (NCI-H2228; first compound 0.01 µM) was 0.588, the relative viability (NCI-H2228; first compound 0.03162 µM) was 0.449 and the relative viability (NCI-H2228; first compound 0.1 µM) was 0.217. It also gave a relative viability (NCI-H2009; first compound 0.001 µM) of 0.486, a relative viability (NCI-H2009; first compound 0.003162 µM) of 0.624 and a relative viability (NCI-H2009; first compound 0.01 µM) of 0.765. For the same molecule, the relative viability (NCI-H2009; first compound 0.03162 µM) was 0.556, the relative viability (NCI-H2009; first compound 0.1 µM) was 0.357 and the relative viability (NCI-H1623; first compound 0.001 µM) was 0.395. It also gave a relative viability (NCI-H1623; first compound 0.003162 µM) of 0.422, a relative viability (NCI-H1623; first compound 0.01 µM) of 0.444 and a relative viability (NCI-H1623; first compound 0.03162 µM) of 0.432. For the same molecule, the relative viability (NCI-H1623; first compound 0.1 µM) was 0.423, the relative viability (NCI-H1648; first compound 0.003162 µM) was 0.257 and the relative viability (NCI-H1648; first compound 0.01 µM) was 0.257. It also gave a relative viability (NCI-H1648; first compound 0.03162 µM) of 0.256, a relative viability (NCI-H1648; first compound 0.1 µM) of 0.253 and a relative viability (EMC-BAC-2; first compound 0.001 µM) of 0.348. It also gave a relative viability (EMC-BAC-2; first compound 0.003162 µM) of 0.387, a relative viability (EMC-BAC-2; first compound 0.01 µM) of 0.426 and a relative viability (EMC-BAC-2; first compound 0.03162 µM) of 0.345. It also gave a relative viability (EMC-BAC-2; first compound 0.1 µM) of 0.354.

In the case of `Cc1cn(-c2cc(NC(=O)c3ccc(C)c(Nc4nccc(-c5cccnc5)n4)c3)cc(C(F)(F)F)c2)cn1` [Nilotinib] + Cc1cc(Nc2cc(N3CCN(C)CC3)nc(Sc3ccc(NC(=O)C4CC4)cc3)n2)n[nH]1 [Tozasertib] (partner 0.1 µM), the relative viability (ABC-1; first compound 0.001 µM) is reported as 0.175, the relative viability (ABC-1; first compound 0.003162 µM) is reported as 0.176 and the relative viability (ABC-1; first compound 0.01 µM) is reported as 0.168. It also gave a relative viability (ABC-1; first compound 0.03162 µM) of 0.232, a relative viability (ABC-1; first compound 0.1 µM) of 0.237 and a relative viability (NCI-H2228; first compound 0.003162 µM) of 0.223. It also gave a relative viability (NCI-H2228; first compound 0.01 µM) of 0.212, a relative viability (NCI-H2228; first compound 0.03162 µM) of 0.16 and a relative viability (NCI-H2228; first compound 0.1 µM) of 0.141. For the same molecule, the relative viability (NCI-H2009; first compound 0.001 µM) was 0.622, the relative viability (NCI-H2009; first compound 0.003162 µM) was 0.853 and the relative viability (NCI-H2009; first compound 0.01 µM) was 0.577. For the same molecule, the relative viability (NCI-H2009; first compound 0.03162 µM) was 0.372, the relative viability (NCI-H2009; first compound 0.1 µM) was 0.383 and the relative viability (NCI-H1623; first compound 0.001 µM) was 0.415. The relative viability (NCI-H1623; first compound 0.003162 µM) was 0.528, the relative viability (NCI-H1623; first compound 0.01 µM) was 0.457 and the relative viability (NCI-H1623; first compound 0.03162 µM) was 0.401. It also gave a relative viability (NCI-H1623; first compound 0.1 µM) of 0.885, a relative viability (NCI-H1648; first compound 0.003162 µM) of 0.395 and a relative viability (NCI-H1648; first compound 0.01 µM) of 0.389. For the same molecule, the relative viability (NCI-H1648; first compound 0.03162 µM) was 0.403, the relative viability (NCI-H1648; first compound 0.1 µM) was 0.383 and the relative viability (EMC-BAC-2; first compound 0.001 µM) was 0.259. For the same molecule, the relative viability (EMC-BAC-2; first compound 0.003162 µM) was 0.258, the relative viability (EMC-BAC-2; first compound 0.01 µM) was 0.244 and the relative viability (EMC-BAC-2; first compound 0.03162 µM) was 0.269.
